Data published in patent publication US7692002B2, “Metal complexes having vitamin B12 as a ligand” (University of Zurich, priority 2004, dated 2010).

Tested on: mouse melanoma cell line (B16F1)
Test: Cytotoxicity tests with a mouse melanoma cell line (B16F1)
Format: cell-based
Settings: B16F1 mouse melanoma cells, concentration of 100 μM

Cyanocobalamin [vitamin B12]
proliferation inhibition: no effect at all
